The text below walks through data of ChEMBL document CHEMBL1157176, “Total syntheses of (+/-)-ovalicin, C4(S *)-isomer, and its C5-analogs and anti-trypanosomal activities” (Bioorg Med Chem, 2008).

One experiment concerns Trypanosoma brucei. The experiment can be described thus: Antitrypanosomal activity against Trypanosoma brucei 427 after 48 hrs by luciferase assay. The settings on record: Trypanosoma brucei, 427, 48 h. It counts as functional, organism-based.
A further experiment deals with HL-60. Description: Antiproliferative activity against human HL60 cells. It counts as functional, cell-based.

Active and inactive are the calls of the source. The rule behind the calls is not given here.

The term IC50 denotes the midpoint of a concentration-inhibition curve. A lower IC50 goes with greater potency. On to `CO[C@@H]1[C@]2(CC[C@H](O[Si](C)(C)C(C)(C)C)[C@@]1(O)/C(C)=C/CC=C(C)C)CO2` (relative stereo), for which the IC50 with Trypanosoma brucei came out at 0.28 µM.
As to `O=C(O[C@@H]1CC[C@]2(CO2)[C@@H](O)[C@H]1O)c1ccccc1` (relative stereo), inhibition with Trypanosoma brucei was half-maximal at 0.72 µM (IC50).
Regarding `CO[C@H]1C(=O)[C@]2(CC[C@@H]1OC(=O)c1ccccc1)CO2` (relative stereo), the IC50 in the experiment on Trypanosoma brucei turned out to be 47.3 µM.
In the experiment with Trypanosoma brucei, `CO[C@@H]1[C@@H](OC(=O)c2ccccc2)CC[C@]2(CO2)[C@]1(O)/C(C)=C/CC=C(C)C` (relative stereo) displayed an IC50 of 4.2 µM.
Still for that read-out and setting: the value for `O=C(O[C@H]1CC[C@]2(CO2)[C@H](O)[C@@H]1O)c1ccccc1` (relative stereo) was 325 µM.
`CO[C@@H]1C(=O)CC[C@]2(CO2)[C@]1(O)/C(C)=C/CC=C(C)C` (relative stereo) came in with a half-inhibitory concentration (IC50) in the experiment with Trypanosoma brucei of 41.5 µM.
For the compound `CO[C@@H]1C(=O)CC[C@]2(CO2)[C@]1(O)[C@@]1(C)O[C@@H]1CC=C(C)C` (relative stereo), the outcome in the experiment on HL-60 was Active.
`CO[C@@H]1[C@H](O[Si](C)(C)C(C)(C)C)CC[C@]2(CO2)[C@@]1(O)/C(C)=C/CC=C(C)C` (relative stereo) returned an IC50 with Trypanosoma brucei of 0.4 µM.
